Data as given in patent publication US20230000808A1, “COMPOSITIONS AND METHODS EXCLUDING OR WITH REDUCED GLUTAMINE FOR THE TREATMENT OF HEMOGLOBINOPATHIES AND THALASSEMIAS” (AXCELLA HEALTH INC., priority 2019, published 2023).

Assays:
[1] = test system: RBCs of healthy whole blood; test: RBC deformability (Elongation Index, LORRCA ektacytometry), ex vivo TBHP oxidation of healthy whole blood; type: cell-based, human; conditions: healthy donor 2, single amino acid treatments
Text: Whole blood from healthy African American and/or Hispanic donors was obtained from Research Blood Components, LLC based on the following donor selection criteria: Adult age (between 18 and 50 years), normal BMI (<30), and absence of other confounding clinical conditions. Whole blood from SCD donors were obtained from BioIVT based on the following donor selection criteria: Patients with genotypes HbSS, HbSC, HbS/β^0 and at least 1-2 months gap since last blood transfusion. Whole blood was shipped on ice on the same day as blood draw. Upon receipt, the blood sample was aliquoted and stored in the refrigerator until used for studies.
RBC deformability measurements were conducted with the Laser Optical Rotational Red Cell Analyzer (LORRCA) from RR Mechatronics in a temperature-controlled environment (37° C.). Briefly, an even layer of RBCs suspended in polyvinylpyrrolidone (PVP) is subjected to shear stress gradient (0.3 to 30 Pa) through two concentric cylinders and the resulting changes in RBC shape or deformability are measured by a laser beam diffraction pattern. The captured images of RBC shape in response to increasing shear stress are then analyzed by the LORRCA program to calculate Elongation Index (EI).
Healthy RBCs have higher deformability ≥0.5 EI and SCD RBCs have lower deformability or EI values as studied by LORRCA ektacytometry in the field. […] The induced hemolysis model in this disclosure involves use of tert-butyl hydroperoxide (TBHP) to lower EI of RBCs.
The ex vivo hemolysis study disclosed here involves overnight treatment of whole blood with vehicle as a control and specific amino acids followed by rapid oxidation (5 min) with TBHP. Method for oxidation of whole blood with tert-butyl hydroperoxide has been used in prior literature (Diederich L, et al, Front Physiol. 2018 May 11; 9:332). RBC deformability or shape changes are then measured with LORRCA ektacytometry.
Whole blood aliquots stored in the fridge were brought up to room temperature while gently shaking on a rocker at low speed for an hour to ensure gradual and uniform suspension of red blood cells prior to deformability measurements. Vehicle control used in the study was 1× Dulbecco's […]) and amino acids disclosed herein were added (at either final 10× or 2.5 mM concentration as indicated) to corresponding vehicle and amino acid treatment conditions. The samples were then incubated overnight at 37° C. The next day, 25 μl of whole blood was taken from each treatment condition and added to 5 mL Elon ISO viscous solution from RR Mechatronics. The sample was inverted 15-20 times to ensure proper mixing of the treated RBCs with the Elon ISO solution followed by loading the sample on LORRCA and capturing RBC deformability or shape measurements over the applied shear gradient. The remaining whole blood treatments were returned to incubator (37° C.) until deformability measurements were completed for all treatments. To the remaining whole blood treatment samples, TBHP solution (5.0-6.0 M in Decane, Sigma) was added at 2.5 mM final concentration from a 100 mM freshly prepared stock and incubated for further 5 min at 37° C. 25 μl of this TBHP-treated sample was immediately removed at the end of the 5 min incubation and added to the Elon ISO solution for RBC deformability measurement after oxidation. Included in the Tables 13-15 are EI measurements at ½ EImax shear stress 1.69 Pa and EImax shear stress 30 Pa from these studies and FIG. 1 captures EI measurements for all shear stress points for the indicated treatment conditions.

IL-6 = test: Secreted IL-6 in HLMVEC treated with TNF-α (FirePlex); type: cell-based, human; conditions: HLMVEC + 0.5 ng/mL TNF-α, 24 h; amino acids 20x HMDB, Nac/Cit/Car 5 mM as bracketed
Protocol: (§1) Primary Human Lung Microvascular Endothelial Cells (HLMVEC; Lonza) were seeded at 6,000 cells per well in Endothelial Cell Growth Basal Medium-2 (Lonza) supplemented with Fetal Bovine Serum (FBS; Lonza), human EGF (Lonza), human VEGF (Lonza), R3-Insulin-like Growth Factor-1 (Lonza), ascorbic acid (Lonza), hydrocortisone (Lonza), human FGF-beta (Lonza), and gentamicin/amphotericin-b (Lonza) in a 96-well plate (Thermo Fisher). The cells were incubated for 45 minutes at room temperature, then incubated overnight at 37° C./5% CO2.
(§2) Following overnight incubation, cell were washed once with 150 μL of Dulbecco's phosphate buffered saline (DPBS; Gibco), and then treated with Endothelial Basal Medium MCB-131 (amino acid, glucose, sodium pyruvate, and phenol red free; US Biologicals) containing a defined custom amino acid concentration based on physiological concentrations in blood of patients with SCD (thus recapitulating observed metabolic imbalances such as the depletion of certain essential amino acids including arginine and aspartate and enrichment of certain non-essential amino acids including glutamate and asparagine), dialyzed FBS (Hyclone), human EGF (Lonza), human VEGF (Lonza), R3-Insulin-like Growth Factor-1 (Lonza), ascorbic acid (Lonza), hydrocortisone (Lonza), human FGF-beta (Lonza), and gentamicin/amphotericin-b (Lonza), glucose, 10 mM HEPES, sodium pyruvate, and sodium bicarbonate supplemented with one of the following: • a. PBS (vehicle control), • b. 0.5 ng/mL Tumor Necrosis Factor alpha (TNFα) and PBS, or; • c. 0.5 ng/mL TNF-α and amino acid treatments at 20× mean physiological concentrations in plasma based on values published in the Human Metabolome Database (HMDB) in PBS.
Supernatants were analyzed for IL-6 concentrations using a Human Cytokines FirePlex-HT Panel 1 kit (abcam) according to the manufacturer-supplied instructions. Particles were imaged on a high content imager (Molecular Devices), and results were interpolated from a standard curve with FirePlex Analysis Workbench Software (abcam) according manufacturer's recommendations.

ICAM-1 = ICAM-1 cell integrated intensity in HLMVEC treated with TNF-α (immunofluorescence); type: cell-based, human; conditions: HLMVEC + 0.5 ng/mL TNF-α, 24 h; amino acids 20x HMDB, Nac/Cit/Car 5 mM as bracketed
Protocol: as §1, §2
(§3) After 24 hours of treatment, cells were washed once with 150 μL of DPBS (Gibco), then fixed with 4% paraformaldehyde. Following fixation, cells were stained with anti-ICAM-1 [MEM-111] (mouse IgG2a anti-human; abcam) and anti-VCAM1 [1.4C3] (mouse IgG1, K anti-human; abcam) primary antibodies at 1000×, and 100× dilutions respectively. Cells were then stained with Goat anti-Mouse IgG2a Cross-Adsorbed Secondary Antibody, Alexa Fluor 594 (Invitrogen) and Goat anti-Mouse IgG1 Cross-Adsorbed Secondary Antibody, Alexa Fluor 647 (Invitrogen) secondary antibodies. Nuclei were stained with Hoechst 3342 (Life Technologies).
(§4) Antibody binding was detected by fluorescence microscopy using a high content imager (Molecular Devices). Images were analyzed using MetaXpress 6 software to determine the integrated intensity per cell for each wavelength corresponding to ICAM-1 or VCAM-1.

VCAM-1 = VCAM-1 cell integrated intensity in HLMVEC treated with TNF-α (immunofluorescence); type: cell-based, human
Protocol: as §1, §2, §3, §4

HLMVEC = test: META-rank score, composite of VCAM1, ICAM1 and IL6 in the HLMVEC model; type: cell-based, human; conditions: HLMVEC + TNF-α; lower score = more optimal; 20x HMDB / 5 mM
Protocol: The ability of single amino acids and combinations to simultaneously impact these phenotypes was measured by a META-rank score (Tables 17 and 18). META-rank score is a composite measure that considers the optimal impact on all 3 phenotypes (e.g. decrease VCAM1, ICAM1, and IL6) in the HLMVEC model.

[2] = Pharmacokinetics following oral dose administration to male Sprague-Dawley rats (plasma amino acids, LC-MS); conditions: analyte after oral gavage of RCitNacQCarLHKVS
Protocol: A pharmacokinetic (PK) analysis was performed on plasma concentrations of various combinations of amino acid compounds administered by oral gavage to male Sprague-Dawley rats. Four animals were dosed with RCitNacQCarLHKVS, a test article comprising ten amino acid components: arginine, citrulline, N-acetylcysteine (Nac), glutamine, carnitine, leucine, histidine, lysine, valine, and serine (Table 19). Animals were fasted for 2 hours prior to dose administration. Plasma samples were taken immediately pre-dose and 0.5, 1, 2, 3, 4, and 5 hours post-dose.
Bioanalysis of collected plasma samples for amino acid content was performed at Axcella Health using an LC-MS method (Section 2.1). Bioanalytical data were analyzed using noncompartmental analysis with PHOENIX® WINNONLIN® (v8.1).
An LC/MS method utilizing HILIC chromatography and high-resolution mass spectrometry was used to quantify amino acids in rat plasma. […]
PK parameters of test article components were determined from individual rat plasma concentration-time data by employing a noncompartmental approach using Phoenix WINNONLIN® (Version 8.1) software. […] This program analyzed data using the standard methods described by Gibaldi and Perrier (see M. Gibaldi and D. Perrier, Pharmacokinetics, 2nd edition, New York: Marcel-Dekker, Inc.; 1982.).

C[N+](C)(C)CC(O)CC(=O)[O-] (centres unmarked) [Car, carnitine]
EI over vehicle control, both ½ EImax and EImax [1]: higher than the vehicle
Secreted IL6 Median (IL-6): −0.022
ICAM-1 Cell Integrated Intensity Median (ICAM-1): −0.013
VCAM-1 expression in HLMVEC (VCAM-1; 0.5 ng/mL TNF-α, amino acids at 20× HMDB, 24 hours): moderate effect
VCAM-1 Cell Integrated Intensity Median (VCAM-1; HLMVEC + 0.5 ng/mL TNF-α, 24 h, amino acids 20x HMDB, Nac/Cit/Car 5 mM as bracketed): −0.017
Meta-Rank (Table 18) (HLMVEC): 12.5
Metarank (Table 17) (HLMVEC): 24
plasma concentration over the five-hour time course [2]: continuously increased
